# Test results: ChEMBL document CHEMBL4312009, “Multigram scale synthesis of polycyclic lactones and evaluation of antitumor and other biological properties” (Eur J Med Chem, 2020)
# Test system: HeLa
# Assay: Cell cycle arrest in human HeLa cells assessed as effect on 4N stage incubated for 21 hrs by propidium iodide based flow cytometry
# Assay type: functional
row,SMILES,EC50 [µM]
1,CCCCCc1c2c(c(C)c3c1Oc1cc(OC)ccc1O3)C(=O)OC2,> 10
2,Cc1c2c(c(CCCCBr)c3c1Oc1ccccc1O3)C(=O)OC2,1.4
3,CCCCCCc1c2c(c(C)c3c1C(=O)SC3)Oc1ccccc1O2,> 10

# Test system: GTPase KRas (Homo sapiens), P01116 [UNDEFINED MUTATION]
# Assay: Inhibition of KRas mutant in human HCT116 cells assessed as cell viability by measuring ATP at 0.2 uM relative to control
# Assay type: cell-based
# Chain of GTPase KRas (Homo sapiens), P01116 [UNDEFINED MUTATION] (P01116 whole entry, looked up, change not shown): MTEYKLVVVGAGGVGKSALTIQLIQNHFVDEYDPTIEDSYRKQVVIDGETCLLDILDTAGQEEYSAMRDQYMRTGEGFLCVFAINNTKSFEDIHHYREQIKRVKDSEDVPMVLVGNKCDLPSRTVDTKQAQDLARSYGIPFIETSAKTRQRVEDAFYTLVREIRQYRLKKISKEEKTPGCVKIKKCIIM
row,SMILES,inhibition [%]
1,Cc1c2c(c(CCCCBr)c3c1Oc1ccccc1O3)C(=O)OC2,33

# Test system: GTPase KRas (Homo sapiens), P01116 [UNDEFINED MUTATION]
# Assay: Inhibition of KRas mutant in human HCT116 cells assessed as cell viability by measuring ATP at 2 uM relative to control
# Assay type: cell-based
row,SMILES,inhibition [%]
1,Cc1c2c(c(CCCCBr)c3c1Oc1ccccc1O3)C(=O)OC2,56
2,CCCCCCc1c2c(c(C)c3c1C(=O)SC3)Oc1ccccc1O2,10

# Test system: GTPase KRas (Homo sapiens), P01116 [UNDEFINED MUTATION]
# Assay: Inhibition of KRas mutant in human DLD1 cells assessed as cell viability by measuring ATP at 2 uM relative to control
# Assay type: cell-based
row,SMILES,inhibition [%]
1,Cc1c2c(c(CCCCBr)c3c1Oc1ccccc1O3)C(=O)OC2,45
2,CCCCCCc1c2c(c(C)c3c1C(=O)SC3)Oc1ccccc1O2,7

# Test system: GTPase KRas (Homo sapiens), P01116 [UNDEFINED MUTATION]
# Assay: Inhibition of KRas mutant in human SW480 cells assessed as cell viability by measuring ATP
# Assay type: cell-based
row,SMILES,inhibition
1,Cc1c2c(c(CCCCBr)c3c1Oc1ccccc1O3)C(=O)OC2,Dose-dependent effect

# Target: Sodium channel protein type 9 subunit alpha (Homo sapiens) (UniProt Q15858)
# Assay: Inhibition of human Nav1.7 at 40 uM relative to control
# Chain of Sodium channel protein type 9 subunit alpha (Homo sapiens) (Q15858 whole entry, looked up): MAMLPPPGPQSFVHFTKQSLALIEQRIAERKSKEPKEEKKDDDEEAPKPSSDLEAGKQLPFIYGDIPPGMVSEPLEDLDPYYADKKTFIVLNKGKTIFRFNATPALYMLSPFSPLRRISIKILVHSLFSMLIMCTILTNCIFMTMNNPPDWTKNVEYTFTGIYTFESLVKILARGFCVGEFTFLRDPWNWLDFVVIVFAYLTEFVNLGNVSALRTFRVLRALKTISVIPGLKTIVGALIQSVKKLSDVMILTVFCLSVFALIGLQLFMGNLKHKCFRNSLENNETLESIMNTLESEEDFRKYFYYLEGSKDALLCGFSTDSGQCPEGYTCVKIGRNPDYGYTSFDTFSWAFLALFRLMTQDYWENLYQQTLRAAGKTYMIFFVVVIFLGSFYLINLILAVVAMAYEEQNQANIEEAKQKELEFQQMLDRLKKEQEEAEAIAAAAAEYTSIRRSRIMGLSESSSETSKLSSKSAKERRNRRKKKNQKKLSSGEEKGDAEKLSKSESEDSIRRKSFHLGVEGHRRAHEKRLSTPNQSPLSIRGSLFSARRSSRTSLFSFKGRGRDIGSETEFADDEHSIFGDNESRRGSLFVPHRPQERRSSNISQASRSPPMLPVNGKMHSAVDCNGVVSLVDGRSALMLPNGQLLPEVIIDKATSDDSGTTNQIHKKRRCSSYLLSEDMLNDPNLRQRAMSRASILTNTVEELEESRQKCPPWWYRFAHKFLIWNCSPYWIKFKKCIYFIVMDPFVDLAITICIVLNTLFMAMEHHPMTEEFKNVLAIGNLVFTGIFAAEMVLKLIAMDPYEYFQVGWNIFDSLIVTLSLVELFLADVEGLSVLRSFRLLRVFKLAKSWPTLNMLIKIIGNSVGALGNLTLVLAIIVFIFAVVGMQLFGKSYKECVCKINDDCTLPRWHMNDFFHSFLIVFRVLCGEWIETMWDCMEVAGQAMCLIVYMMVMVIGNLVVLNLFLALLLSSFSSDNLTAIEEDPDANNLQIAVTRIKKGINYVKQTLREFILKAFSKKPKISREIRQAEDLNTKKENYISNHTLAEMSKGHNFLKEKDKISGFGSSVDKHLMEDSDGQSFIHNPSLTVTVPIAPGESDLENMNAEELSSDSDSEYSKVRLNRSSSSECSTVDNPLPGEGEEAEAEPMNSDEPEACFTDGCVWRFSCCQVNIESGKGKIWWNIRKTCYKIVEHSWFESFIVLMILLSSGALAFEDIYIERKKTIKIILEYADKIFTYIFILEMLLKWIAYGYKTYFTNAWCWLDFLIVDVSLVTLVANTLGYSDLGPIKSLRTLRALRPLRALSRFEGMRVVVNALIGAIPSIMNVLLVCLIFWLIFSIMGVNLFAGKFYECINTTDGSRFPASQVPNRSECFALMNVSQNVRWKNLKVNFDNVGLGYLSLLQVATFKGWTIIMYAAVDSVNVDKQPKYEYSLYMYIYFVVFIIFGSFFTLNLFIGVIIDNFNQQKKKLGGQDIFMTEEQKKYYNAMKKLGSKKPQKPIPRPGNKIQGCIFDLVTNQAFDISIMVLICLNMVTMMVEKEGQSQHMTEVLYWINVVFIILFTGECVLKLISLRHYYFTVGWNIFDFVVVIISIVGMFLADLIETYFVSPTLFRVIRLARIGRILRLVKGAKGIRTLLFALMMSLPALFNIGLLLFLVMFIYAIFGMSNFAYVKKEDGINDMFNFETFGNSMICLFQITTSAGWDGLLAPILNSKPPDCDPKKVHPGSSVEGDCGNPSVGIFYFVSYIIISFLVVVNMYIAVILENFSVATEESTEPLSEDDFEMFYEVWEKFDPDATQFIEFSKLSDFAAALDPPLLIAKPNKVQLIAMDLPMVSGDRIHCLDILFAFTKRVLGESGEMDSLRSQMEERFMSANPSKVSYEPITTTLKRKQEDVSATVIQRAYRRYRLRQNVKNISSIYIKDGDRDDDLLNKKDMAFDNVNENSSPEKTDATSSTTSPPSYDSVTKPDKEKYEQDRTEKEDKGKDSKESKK
row,SMILES,inhibition [%]
1,Cc1c2c(c(CCCCBr)c3c1Oc1ccccc1O3)C(=O)OC2,0
2,CCCCCCc1c2c(c(C)c3c1C(=O)SC3)Oc1ccccc1O2,-10

# Test system: GTPase KRas (Homo sapiens), P01116 [UNDEFINED MUTATION]
# Assay: Inhibition of KRas mutant in human SW480 cells assessed as cell viability by measuring ATP at 20 uM relative to control
# Assay type: cell-based
row,SMILES,inhibition [%]
1,Cc1c2c(c(CCCCBr)c3c1Oc1ccccc1O3)C(=O)OC2,63
2,CCCCCCc1c2c(c(C)c3c1C(=O)SC3)Oc1ccccc1O2,22

# Test system: GTPase KRas (Homo sapiens), P01116 [UNDEFINED MUTATION]
# Assay: Inhibition of KRas mutant in human HCT116 cells assessed as cell viability by measuring ATP
# Assay type: cell-based
row,SMILES,inhibition
1,Cc1c2c(c(CCCCBr)c3c1Oc1ccccc1O3)C(=O)OC2,Dose-dependent effect

# Test system: GTPase KRas (Homo sapiens), P01116 [UNDEFINED MUTATION]
# Assay: Inhibition of KRas mutant in human DLD1 cells assessed as cell viability by measuring ATP at 0.2 uM relative to control
# Assay type: cell-based
row,SMILES,inhibition [%]
1,Cc1c2c(c(CCCCBr)c3c1Oc1ccccc1O3)C(=O)OC2,30
2,CCCCCCc1c2c(c(C)c3c1C(=O)SC3)Oc1ccccc1O2,-9

# Test system: GTPase KRas (Homo sapiens), P01116 [UNDEFINED MUTATION]
# Assay: Inhibition of KRas mutant in human SW480 cells assessed as cell viability by measuring ATP at 0.2 uM relative to control
# Assay type: cell-based
row,SMILES,inhibition [%]
1,Cc1c2c(c(CCCCBr)c3c1Oc1ccccc1O3)C(=O)OC2,7
2,CCCCCCc1c2c(c(C)c3c1C(=O)SC3)Oc1ccccc1O2,13

# Test system: HeLa
# Assay: Cell cycle arrest in human HeLa cells assessed as effect on S phase incubated for 21 hrs by propidium iodide based flow cytometry
# Assay type: functional
row,SMILES,IC50 [µM]
1,CCCCCc1c2c(c(C)c3c1Oc1cc(OC)ccc1O3)C(=O)OC2,> 10
2,Cc1c2c(c(CCCCBr)c3c1Oc1ccccc1O3)C(=O)OC2,> 10
3,CCCCCCc1c2c(c(C)c3c1C(=O)SC3)Oc1ccccc1O2,> 10

# Test system: HeLa
# Assay: Cell cycle arrest in human HeLa cells assessed as effect on 2N stage incubated for 21 hrs by propidium iodide based flow cytometry
# Assay type: functional
row,SMILES,IC50 [µM]
1,CCCCCc1c2c(c(C)c3c1Oc1cc(OC)ccc1O3)C(=O)OC2,> 10
2,Cc1c2c(c(CCCCBr)c3c1Oc1ccccc1O3)C(=O)OC2,1.5
3,CCCCCCc1c2c(c(C)c3c1C(=O)SC3)Oc1ccccc1O2,> 10

# Target: Microtubule-associated protein tau (Homo sapiens) (UniProt P10636)
# Assay: Inhibition of human Tau at 40 uM relative to control
# Chain of Microtubule-associated protein tau (Homo sapiens) (P10636 whole entry): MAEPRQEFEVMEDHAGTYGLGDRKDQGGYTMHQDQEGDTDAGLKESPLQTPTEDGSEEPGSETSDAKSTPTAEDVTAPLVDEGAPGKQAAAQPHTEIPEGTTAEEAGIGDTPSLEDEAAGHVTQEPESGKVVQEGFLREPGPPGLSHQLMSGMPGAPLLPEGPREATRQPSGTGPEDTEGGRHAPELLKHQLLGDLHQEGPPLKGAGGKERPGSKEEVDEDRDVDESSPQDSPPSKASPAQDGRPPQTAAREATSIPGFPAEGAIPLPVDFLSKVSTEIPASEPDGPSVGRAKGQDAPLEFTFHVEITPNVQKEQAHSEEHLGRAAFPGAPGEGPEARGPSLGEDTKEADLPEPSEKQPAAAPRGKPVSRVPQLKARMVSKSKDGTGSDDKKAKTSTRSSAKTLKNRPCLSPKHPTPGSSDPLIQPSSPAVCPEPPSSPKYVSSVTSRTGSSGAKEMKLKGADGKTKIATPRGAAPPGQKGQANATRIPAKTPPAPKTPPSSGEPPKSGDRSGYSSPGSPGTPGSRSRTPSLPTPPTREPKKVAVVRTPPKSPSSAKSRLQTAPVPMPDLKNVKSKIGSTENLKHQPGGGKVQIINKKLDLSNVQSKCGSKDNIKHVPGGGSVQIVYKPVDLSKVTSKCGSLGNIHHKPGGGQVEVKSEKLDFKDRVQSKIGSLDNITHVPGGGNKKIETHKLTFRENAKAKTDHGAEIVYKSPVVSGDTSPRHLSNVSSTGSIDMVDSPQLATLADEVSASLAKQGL
row,SMILES,inhibition [%]
1,CCCCCc1c2c(c(C)c3c1Oc1cc(OC)ccc1O3)C(=O)OC2,23
2,Cc1c2c(c(CCCCBr)c3c1Oc1ccccc1O3)C(=O)OC2,56
3,CCCCCCc1c2c(c(C)c3c1C(=O)SC3)Oc1ccccc1O2,20

# Test system: GTPase KRas (Homo sapiens), P01116 [UNDEFINED MUTATION]
# Assay: Inhibition of KRas mutant in human HCT116 cells […] assessed as cell viability by measuring ATP
# Assay type: cell-based
row,SMILES,inhibition
1,Cc1c2c(c(CCCCBr)c3c1Oc1ccccc1O3)C(=O)OC2,Dose-dependent effect

# Test system: GTPase KRas (Homo sapiens), P01116 [UNDEFINED MUTATION]
# Assay: Inhibition of KRas mutant in human DLD1 cells assessed as cell viability by measuring ATP
# Assay type: cell-based
row,SMILES,inhibition
1,Cc1c2c(c(CCCCBr)c3c1Oc1ccccc1O3)C(=O)OC2,Dose-dependent effect

# Test system: HeLa
# Assay: Cell cycle arrest in human HeLa cells assessed as effect on mitotic index incubated for 21 hrs by propidium iodide based flow cytometry
# Assay type: functional
row,SMILES,EC50 [µM]
1,CCCCCc1c2c(c(C)c3c1Oc1cc(OC)ccc1O3)C(=O)OC2,> 10
2,Cc1c2c(c(CCCCBr)c3c1Oc1ccccc1O3)C(=O)OC2,1.3
3,CCCCCCc1c2c(c(C)c3c1C(=O)SC3)Oc1ccccc1O2,> 10

# Target: Apolipoprotein C-III (Homo sapiens) (UniProt P02656)
# Assay: Inhibition of human APOC3 at 40 uM relative to control
# Chain of Apolipoprotein C-III (Homo sapiens) (P02656 whole entry): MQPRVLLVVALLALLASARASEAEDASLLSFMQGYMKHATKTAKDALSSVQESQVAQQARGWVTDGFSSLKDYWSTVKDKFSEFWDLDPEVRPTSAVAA
row,SMILES,inhibition [%]
1,CCCCCc1c2c(c(C)c3c1Oc1cc(OC)ccc1O3)C(=O)OC2,12
2,Cc1c2c(c(CCCCBr)c3c1Oc1ccccc1O3)C(=O)OC2,67
3,CCCCCCc1c2c(c(C)c3c1C(=O)SC3)Oc1ccccc1O2,21

# Target: Proprotein convertase subtilisin/kexin type 9 (Homo sapiens) (UniProt Q8NBP7)
# Assay: Inhibition of human PCSK9 at 40 uM relative to control
# Chain of Proprotein convertase subtilisin/kexin type 9 (Homo sapiens) (Q8NBP7 31-152 limits assumed): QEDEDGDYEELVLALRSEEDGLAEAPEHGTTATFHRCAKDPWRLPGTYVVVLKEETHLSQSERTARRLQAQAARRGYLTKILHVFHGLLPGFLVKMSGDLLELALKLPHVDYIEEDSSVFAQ
# Chain of Proprotein convertase subtilisin/kexin type 9 (Homo sapiens) (Q8NBP7 153-692 limits assumed): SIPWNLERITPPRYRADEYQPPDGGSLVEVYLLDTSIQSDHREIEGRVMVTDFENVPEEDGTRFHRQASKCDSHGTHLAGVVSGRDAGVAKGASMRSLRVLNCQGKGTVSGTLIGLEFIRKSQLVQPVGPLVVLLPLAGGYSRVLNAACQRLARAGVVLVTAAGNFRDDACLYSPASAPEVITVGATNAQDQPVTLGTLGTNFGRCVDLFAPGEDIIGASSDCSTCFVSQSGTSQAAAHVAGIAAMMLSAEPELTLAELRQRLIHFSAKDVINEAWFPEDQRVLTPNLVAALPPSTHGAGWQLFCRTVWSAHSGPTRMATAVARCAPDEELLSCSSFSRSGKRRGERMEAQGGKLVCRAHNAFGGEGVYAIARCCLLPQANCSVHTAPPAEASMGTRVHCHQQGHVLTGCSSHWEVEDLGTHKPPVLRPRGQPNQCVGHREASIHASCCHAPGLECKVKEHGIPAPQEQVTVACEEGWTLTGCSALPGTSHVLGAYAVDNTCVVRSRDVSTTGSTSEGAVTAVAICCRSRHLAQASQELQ
row,SMILES,inhibition [%]
1,CCCCCc1c2c(c(C)c3c1Oc1cc(OC)ccc1O3)C(=O)OC2,-7
2,Cc1c2c(c(CCCCBr)c3c1Oc1ccccc1O3)C(=O)OC2,35
3,CCCCCCc1c2c(c(C)c3c1C(=O)SC3)Oc1ccccc1O2,30

# Test system: GTPase KRas (Homo sapiens), P01116 [UNDEFINED MUTATION]
# Assay: Inhibition of KRas mutant in human DLD1 cells assessed as cell viability by measuring ATP at 20 uM relative to control
# Assay type: cell-based
row,SMILES,inhibition [%]
1,CCCCCc1c2c(c(C)c3c1Oc1cc(OC)ccc1O3)C(=O)OC2,-3.9
2,Cc1c2c(c(CCCCBr)c3c1Oc1ccccc1O3)C(=O)OC2,76
3,CCCCCCc1c2c(c(C)c3c1C(=O)SC3)Oc1ccccc1O2,90

# Test system: GTPase KRas (Homo sapiens), P01116 [UNDEFINED MUTATION]
# Assay: Inhibition of KRas mutant in human HCT116 cells […] assessed as cell viability by measuring ATP at 2 uM relative to control
# Assay type: cell-based
row,SMILES,inhibition [%]
1,Cc1c2c(c(CCCCBr)c3c1Oc1ccccc1O3)C(=O)OC2,58
2,CCCCCCc1c2c(c(C)c3c1C(=O)SC3)Oc1ccccc1O2,-4

# Test system: GTPase KRas (Homo sapiens), P01116 [UNDEFINED MUTATION]
# Assay: Inhibition of KRas mutant in human HCT116 cells […] assessed as cell viability by measuring ATP at 20 uM relative to control
# Assay type: cell-based
row,SMILES,inhibition [%]
1,Cc1c2c(c(CCCCBr)c3c1Oc1ccccc1O3)C(=O)OC2,53
2,CCCCCCc1c2c(c(C)c3c1C(=O)SC3)Oc1ccccc1O2,18

# Test system: not listed separately
# Assay: Activation of wnt pathway in mouse C2C12 cells assessed as increase in alkaline phosphatase activity
# Assay type: cell-based
row,SMILES,EC50 [µM]
1,CCCCCc1c2c(c(C)c3c1Oc1cc(OC)ccc1O3)C(=O)OC2,> 10
2,Cc1c2c(c(CCCCBr)c3c1Oc1ccccc1O3)C(=O)OC2,8.2
3,CCCCCCc1c2c(c(C)c3c1C(=O)SC3)Oc1ccccc1O2,> 10

# Test system: GTPase KRas (Homo sapiens), P01116 [UNDEFINED MUTATION]
# Assay: Inhibition of KRas mutant in human SW480 cells assessed as cell viability by measuring ATP at 2 uM relative to control
# Assay type: cell-based
row,SMILES,inhibition [%]
1,Cc1c2c(c(CCCCBr)c3c1Oc1ccccc1O3)C(=O)OC2,62
2,CCCCCCc1c2c(c(C)c3c1C(=O)SC3)Oc1ccccc1O2,9

# Test system: GTPase KRas (Homo sapiens), P01116 [UNDEFINED MUTATION]
# Assay: Inhibition of KRas mutant in human HCT116 cells assessed as cell viability by measuring ATP at 20 uM relative to control
# Assay type: cell-based
row,SMILES,inhibition [%]
1,CCCCCc1c2c(c(C)c3c1Oc1cc(OC)ccc1O3)C(=O)OC2,26
2,Cc1c2c(c(CCCCBr)c3c1Oc1ccccc1O3)C(=O)OC2,76
3,CCCCCCc1c2c(c(C)c3c1C(=O)SC3)Oc1ccccc1O2,40

# Test system: GTPase KRas (Homo sapiens), P01116 [UNDEFINED MUTATION]
# Assay: Inhibition of KRas mutant in human HCT116 cells […] assessed as cell viability by measuring ATP at 0.2 uM relative to control
# Assay type: cell-based
row,SMILES,inhibition [%]
1,Cc1c2c(c(CCCCBr)c3c1Oc1ccccc1O3)C(=O)OC2,15

# Test system: not listed separately
# Assay: Activation of wnt pathway in mouse C2C12 cells assessed as increase in beta-catenin activity
# Assay type: cell-based
row,SMILES,EC50 [µM]
1,CCCCCc1c2c(c(C)c3c1Oc1cc(OC)ccc1O3)C(=O)OC2,> 10
2,Cc1c2c(c(CCCCBr)c3c1Oc1ccccc1O3)C(=O)OC2,> 20
3,CCCCCCc1c2c(c(C)c3c1C(=O)SC3)Oc1ccccc1O2,> 10

# Test system: HeLa
# Assay: Cell cycle arrest in human HeLa cells assessed as effect on G1 phase incubated for 21 hrs by propidium iodide based flow cytometry
# Assay type: functional
row,SMILES,EC50 [µM]
1,CCCCCc1c2c(c(C)c3c1Oc1cc(OC)ccc1O3)C(=O)OC2,> 10
2,Cc1c2c(c(CCCCBr)c3c1Oc1ccccc1O3)C(=O)OC2,> 10
3,CCCCCCc1c2c(c(C)c3c1C(=O)SC3)Oc1ccccc1O2,> 10

# Test system: HeLa
# Assay: Cell cycle arrest in human HeLa cells incubated for 21 hrs by propidium iodide based flow cytometry
# Assay type: functional
row,SMILES,IC50 [µM]
1,Cc1c2c(c(CCCCBr)c3c1Oc1ccccc1O3)C(=O)OC2,0.6
2,CCCCCCc1c2c(c(C)c3c1C(=O)SC3)Oc1ccccc1O2,> 10

# Target: T1, Angiopoietin-like protein 8 (Homo sapiens) (UniProt Q6UXH0)
# T1 sequence (whole entry): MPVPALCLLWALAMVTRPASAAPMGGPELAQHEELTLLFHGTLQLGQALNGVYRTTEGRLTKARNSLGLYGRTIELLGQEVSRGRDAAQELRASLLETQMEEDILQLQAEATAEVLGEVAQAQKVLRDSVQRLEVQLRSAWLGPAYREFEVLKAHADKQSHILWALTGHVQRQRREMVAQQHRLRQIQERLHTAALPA
# Assay: Inhibition of human Angptl8 at 40 uM relative to control
row,SMILES,inhibition [%]
1,CCCCCc1c2c(c(C)c3c1Oc1cc(OC)ccc1O3)C(=O)OC2,34
2,Cc1c2c(c(CCCCBr)c3c1Oc1ccccc1O3)C(=O)OC2,67
3,CCCCCCc1c2c(c(C)c3c1C(=O)SC3)Oc1ccccc1O2,31
